Experimental data as given in patent publication US6683103B2, “Sulfonamides for treatment of endothelin-mediated disorders” (Texas Biotechnology Corporation, priority 1997, dated 2004).
Read-outs that look alike come from different tables or passages of the source. One block for each compound: values may come before it.

Legend:
human ETA receptors = target: T1, human ETA receptors (Homo sapiens, UniProt P25101); experiment: Binding Test #1: inhibition of 125I-ET-1 binding to ETA receptors (TE 671 cell membranes)
T1 construct: endogenous in cells; host or cells: TE 671 cells (ATCC HTB 139)
T1 sequence (P25101 21-427): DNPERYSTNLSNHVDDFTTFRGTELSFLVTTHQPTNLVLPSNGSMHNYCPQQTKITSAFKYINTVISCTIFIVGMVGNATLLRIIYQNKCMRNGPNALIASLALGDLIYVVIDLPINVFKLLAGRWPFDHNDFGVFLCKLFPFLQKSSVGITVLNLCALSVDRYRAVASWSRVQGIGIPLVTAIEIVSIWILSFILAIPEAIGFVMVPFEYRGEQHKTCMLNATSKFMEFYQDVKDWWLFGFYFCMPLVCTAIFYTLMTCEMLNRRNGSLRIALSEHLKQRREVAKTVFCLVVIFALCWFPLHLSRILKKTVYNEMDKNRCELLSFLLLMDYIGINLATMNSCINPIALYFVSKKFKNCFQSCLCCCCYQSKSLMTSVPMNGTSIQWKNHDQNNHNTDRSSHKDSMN
From the text: (§1) Compounds that are potential endothelin antagonists are identified by testing their ability to compete with ^125I-labeled ET-1 for binding to human ETA receptors or ETB receptors present on isolated cell membranes. The effectiveness of the test compound as an antagonist or agonist of the biological tissue response of endothelin can also be assessed by measuring the effect on endothelin induced contraction of isolated rat thoracic aortic rings. The ability of the compounds to act as antagonists or agonists for ETB receptors can be assess by testing the ability of the compounds are to inhibit endothelin-1 induced prostacyclin release from cultured bovine aortic endothelial cells.
A. Endothelin Binding Inhibition—Binding Test #1: Inhibition of Binding to ETA Receptors
TE 671 cells (ATCC Accession No. HTB 139) express ETA receptors. These cells were grown to confluence in T-175 flasks. Cells from multiple flasks were collected by scraping, pooled and centrifuged for 10 min at 190×g. The cells were resuspended in phosphate buffered saline (PBS) containing 10 mM EDTA using a Tenbroeck homogenizer. The suspension was centrifuged at 4° C. at 57,800×g for 15 min, the pellet was resuspended in 5 ml of buffer A (5 mM HEPES buffer, pH 7.4 containing aprotinin (100 KIU/ml)) and then frozen and thawed once. 5 ml of Buffer B (5 mM HEPES Buffer, pH 7.4 containing 10 mM MnCl2 and 0.001% deoxyribonuclease Type 1) was added, the suspension mixed by inversion and then incubated at 37° C. for 30 minutes. The mixture was centrifuged at 57,800×g as described above, the pellet washed twice with buffer A and then resuspended in buffer C (30 mM HEPES buffer, pH 7.4 containing aprotinin (100 KIU/ml) to give a final protein concentration of 2 mg/ml and stored at −70° C. until use.
The membrane suspension was diluted with binding buffer (30 mM HEPES buffer, pH 7.4 containing 150 mM NaCl, 5mM MgCl2, 0.5% Bacitracin) to a concentration of 8 μg/50 μl. ^125I-endothelin-1 (3,000 cpm, […]) was added to 50 μL of either: (A) endothelin-1 (for non specific binding) to give a final concentration 80 nM); (B) binding buffer (for total binding); or (C) a test compound (final concentration 1 nM to 100 μM). The membrane suspension (50 μL), containing up to 8 μg of membrane protein, was added to each of (A), (B), or (C). Mixtures were shaken, and incubated at 4° C. for 16-18 hours, and then centrifuged at […] for 25 min at 2,500×g. Alternatively, the incubation was conducted at 24° C. […] This, must be kept in mind when comparing IC50 concentrations among compounds provided herein.
The supernatant, containing unbound radioactivity, was decanted and the pellet counted on a Genesys multiwell gamma counter. The degree of inhibition of binding (D) was calculated according to the following equation: [formula]
Each test was generally performed in triplicate.

human ETB receptor = target: T2, human ETB receptor (Homo sapiens, UniProt P24530); experiment: Binding Test #2: inhibition of 125I-ET-1 binding to ETB receptors (transfected COS7 cell membranes); conditions: read-out: ETB
T2 construct: expressed in transfected cells; host or cells: COS7 cells
T2 sequence (P24530 27-442): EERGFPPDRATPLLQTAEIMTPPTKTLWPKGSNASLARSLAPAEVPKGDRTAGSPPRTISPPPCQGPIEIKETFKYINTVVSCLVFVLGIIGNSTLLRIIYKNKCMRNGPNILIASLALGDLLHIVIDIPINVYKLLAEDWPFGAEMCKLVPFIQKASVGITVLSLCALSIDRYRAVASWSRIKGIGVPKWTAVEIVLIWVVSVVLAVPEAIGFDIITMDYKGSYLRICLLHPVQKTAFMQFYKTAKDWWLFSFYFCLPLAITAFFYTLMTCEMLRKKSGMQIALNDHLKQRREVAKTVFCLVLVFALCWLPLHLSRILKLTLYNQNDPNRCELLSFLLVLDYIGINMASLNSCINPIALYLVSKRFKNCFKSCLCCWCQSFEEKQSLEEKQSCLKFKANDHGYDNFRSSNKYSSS
From the text: as §1
B. Endothelin Binding Inhibition—Binding Test #2: Inhibition of Binding to ETB Receptors
COS7 cells were transfected with DNA encoding the ETB receptor, The resulting cells, which express the human ETB receptor, were grown to confluence in T-150 flasks. Membrane was prepared as described above. The binding assay was performed as described above using the membrane preparation diluted with binding buffer to a concentration of 1 μg/50 μl.
Briefly, the COS7 cells, described above, that had been transfected with DNA encoding the ETB receptor and express the human ETB receptor on their surfaces were grown to confluence in T-1 75 flasks. Cells from multiple flasks were collected by scraping, pooled and centrifuged for 10 min at 190×g. The cells were resuspended in phosphate buffered saline (PBS) containing 10 mM EDTA using a Tenbroeck homogenizer. The suspension was centrifuged at 4° C. 57,800 X g for 15 min, the pellet was resuspended in 5 ml of buffer A (5mM HEPES buffer, pH 7.4 containing aprotinin (100 KIU/ml)) and then frozen and thawed once. Five ml of Buffer B (5 mM HEPES Buffer, pH 7.4 containing 10 mM MnCl2 and 0.001% deoxyribonuclease Type 1) was added, the suspension mixed by inversion and then incubated at 37° C. for 30 minutes. The mixture was centrifuged at 57,800×g as described above, the pellet washed twice with buffer A and then resuspended in buffer C (30 mM HEPES buffer, pH 7.4 containing aprotinin (100 KIU/ml) to give a final protein concentration of 2 mg/ml.
The binding assay was performed as described above using the membrane preparation diluted to give 1 μg/50 μl of binding buffer.

[1] = Table 1, † incubation at 24° C., read-out: ETA
[2] = Table 1, † incubation at 24° C.
[3] = Table 3, † incubation at 24° C., read-out: ETA
[4] = Table 1, incubation at 4° C., read-out: ETA

IC50 (human ETA receptors; [3]): 5.45 nM
SMILES: Cc1cc(C)c(OC(N)=O)c(C)c1NC(=O)c1sccc1S(=O)(=O)Nc1onc(C)c1Cl [3-(((3-(((4-chloro-3-methyl-5-isoxazolyl)amino)sulfonyl)-2-thienyl)carbonyl)amino)-2,4,6-trimethyiphenyl carbamate]

IC50 (human ETA receptors; [4]): 9170 nM
IC50 (human ETB receptor; Table 1, incubation at 4° C.): 7840 nM
SMILES: Cc1noc(NS(=O)(=O)c2cccn2-c2ccc(-c3ccccc3)cc2)c1Br [(4-bromo-3-methyl-5-isoxazolyl)-1-(4′-biphenyl)pyrrole-2-sulfonamide]

IC50 (human ETA receptors; [4]): 69.2 nM
IC50 (human ETA receptors; [1]): 295 nM
IC50 (human ETB receptor; Table 1, incubation at 4° C.): 290 nM
IC50 (human ETB receptor; [2]): 1190 nM
SMILES: Cc1noc(NS(=O)(=O)c2ccsc2NC(=O)Nc2sccc2S(=O)(=O)Nc2onc(C)c2Br)c1Br [N,N′-bis{3-[(4-bromo-3-methyl-5-isoxazolyl)aminosulfonyl)thien-2-yl} urea]

ETA/ETB selectivity (human ETA receptors; Table 3): 9000^∥
IC50 (human ETA receptors; [3]): 2.94 nM
SMILES: CC(=O)c1cc(C)cc(C)c1NC(=O)c1sc(C)cc1S(=O)(=O)Nc1onc(C)c1Cl [N-(2-acetyl-4,6-dimethylphenyl)-3-(((4-chloro-3-methyl-5-isoxazolyl)amino)sulfonyl)-5-methyl-2-thiophenecarboxamide]

IC50 (human ETA receptors; [1]): 6100 nM
IC50 (human ETB receptor; [2]): > 50000 nM
SMILES: Cc1noc(NS(=O)(=O)c2ccsc2C(=O)Oc2ccc3c(c2)OCO3)c1C [N-(3,4-dimenthyl-5-isoxazolyl)-2-[3,4-(methylenedioxy)phenox] [N-(3,4-dimenthyl-5-isoxazolyl)-2-[3,4-(methylenedioxy)phenoxycarbonyl]thiophene-3-sulfonamide]

IC50 (human ETA receptors; [4]): 367 nM
SMILES: COC(=O)c1sccc1S(=O)(=O)Nc1onc(C)c1C [N-(3,4-dimethyl-5-isoxazolyl)-2-(carbomethoxy)thiophene-3-sulfonamide]

IC50 (human ETA receptors; Table 2, incubation at 4° C., read-out: ETA): 8.3 ± 1.4 nM
IC50 (human ETA receptors; read-out: IC50 for ETA receptors): ~8 nM
IC50 (human ETB receptor; Table 2, incubation at 4° C.): 12800 nM
SMILES: Cc1noc(NS(=O)(=O)c2ccccc2-c2ccccc2)c1C [N-(3,4-dimethyl-5-isoxazolyl)-2-biphenylsulfonamide]

IC50 (human ETA receptors; [4]): 3130 nM
SMILES: Cc1noc(NS(=O)(=O)c2ccco2)c1C [N-(3,4-dimethyl-5-isoxazolyl)furan-2-sulfonamide]

IC50 (human ETA receptors; [1]): 122000 nM
SMILES: Cc1ccc(OC(=O)c2sccc2S(=O)(=O)Nc2onc(C)c2Br)cc1 [N-(4-bromo-3-methyl-5-isoxazolyl)-2-[(4-methylphenoxy)carbonyl]thiophene-3-sulfonamide]

IC50 (human ETA receptors; [1]): 3800 nM
SMILES: COC(=O)c1cc(OC)c(OC)cc1NC(=O)c1sccc1S(=O)(=O)Nc1onc(C)c1Cl [N-(4-chloro-3-methyl-5-isoxazolyl)2-{[4,5-dimethoxy-2,4,5-di] [N-(4-chloro-3-methyl-5-isoxazolyl)2-{[4,5-dimethoxy-2,4,5-dimethoxy-2-methoxycarbonyl)phenyl]phenylaminocarbonyl}thiophene-3-sulfonamide]

Second part, the compound before the results:

SMILES: Cc1ccc(/C=C/c2sccc2S(=O)(=O)Nc2onc(C)c2Br)cc1
IC50 (human ETA receptors; [1]): 260 nM
IC50 (human ETB receptor; [2]): 413 nM

SMILES: COC(=O)Oc1c(C)cc(C)c(NC(=O)c2sccc2S(=O)(=O)Nc2onc(C)c2Cl)c1C [3-(((3-(((4-chloro-3-methyl-5-isoxazolyl)amino)sulfonyl)-2-thienyl)carbonyl)amino)-2,4,6-trimethylphenyl methyl carbonate]
IC50 (human ETA receptors; [3]): 0.75 nM

SMILES: CCC(=O)c1cc(C)cc(C)c1NC(=O)c1sccc1S(=O)(=O)Nc1onc(C)c1Cl [3-(((4-chloro-3-methyl-5-isoxazolyl)amino)sulfonyl)-N-(2,4-dimethyl-6-propionylphenyl)-2-thiophenecarboxamide]
ETA/ETB selectivity (human ETA receptors; Table 3): 21000^∥
IC50 (human ETA receptors; [3]): 0.61 nM

SMILES: Cc1cc(C)c(NC(=O)c2sccc2S(=O)(=O)Nc2onc(C)c2Cl)c(C(=O)C2CCCCC2)c1 [3-(((4-chloro-3-methyl-5-isoxazolyl)amino)sulfonyl)-N-(2-(cyclohexylcarbonyl)-4,6-dimethylphenyl)-2-thiophenecarboxamide]
ETA/ETB selectivity (human ETA receptors; Table 3): 1300^∥
IC50 (human ETA receptors; [3]): 14.9 nM

SMILES: Cc1noc(NS(=O)(=O)c2cc(Br)c(Cl)s2)c1Br [4-bromo-5-chloro-N-(4-Bromo-3-methyl-5-isoxazolyl)-thiophene-2-sulfonamide]
IC50 (human ETA receptors; [4]): 359 nM
IC50 (human ETB receptor; Table 1, incubation at 4° C.): 2670 nM

SMILES: Cc1cc(NS(=O)(=O)c2ccc(-c3ccon3)s2)on1 [5-(3-isoxazolyl)-N-(3-methyl-5-isoxazolyl)-2-thiophenesulfonamide]
IC50 (human ETA receptors; [4]): 5600 nM
IC50 (human ETB receptor; Table 1, incubation at 4° C.): 6700 nM

SMILES: Cc1noc(NS(=O)(=O)c2ccsc2NC(=O)Nc2sccc2S(=O)(=O)Nc2onc(C)c2C)c1C [N,N′-bis{3-[3,4-dimethyl-5-isoxazolyl)aminosulfonyl]thien-2-yl}urea]
IC50 (human ETA receptors; [4]): 1010 ± 1030 nM
IC50 (human ETA receptors; [1]): 2700 nM
IC50 (human ETB receptor; Table 1, incubation at 4° C.): 3700 ± 2700 nM
IC50 (human ETB receptor; [2]): 5900 nM

SMILES: Cc1cc(C)c(NC(=O)c2sccc2S(=O)(=O)Nc2onc(C)c2Cl)c(C(=O)c2ccccc2)c1 [N-(2-benzoyl-4,6-dimethylphenyl)-3-(((4-chloro-3-methyl-5-isoxazolyl)amino)sulfonyl)-2-thiophenecarboxamide]
ETA/ETB selectivity (human ETA receptors; Table 3): 6000^∥
IC50 (human ETA receptors; [3]): 4.26 nM

SMILES: Cc1noc(NS(=O)(=O)c2ccsc2C(=O)Nc2ccccc2)c1C [N-(3,4-dimethyl-5-isoxazolyl)-2-(N-phenylaminocarbonyl)thiophene-3-sulfonamide]
IC50 (human ETA receptors; [4]): 18.2 nM
IC50 (human ETB receptor; Table 1, incubation at 4° C.): ~170000 nM

SMILES: Cc1noc(NS(=O)(=O)c2ccsc2C(=O)O)c1C [N-(3,4-dimethyl-5-isoxazolyl)-2-(carboxyl)thiophene-3-sulfonamide]
IC50 (human ETA receptors; [4]): 2640 nM
IC50 (human ETB receptor; Table 1, incubation at 4° C.): > 100000 nM

SMILES: Cc1noc(NS(=O)(=O)c2cc(S(=O)(=O)c3ccccc3)cs2)c1Br [N-(4-Bromo-3-methyl-5-isoxazolyl)-4-benzenesulfonylthiophene-2-sulfonamide]
IC50 (human ETA receptors; [4]): 383 nM
